In ChEMBL document CHEMBL5352433, “Design, synthesis, and biological evaluation of low-toxic lappaconitine derivatives as potential analgesics” (Eur J Med Chem, 2022):

Tested on: Mus musculus
Assay: Analgesic activity against acetic acid-induced Kunming writhing mouse model assessed as inhibition of writhing at 10 mg/kg, sc pretreated with compound for 15 mins followed by acetic acid addition and measured after 15 mins relative to control
Format: functional
Conditions: 0.5 h, time 30 min

Point of comparison: `CCN1C[C@]2(OC(=O)c3ccccc3NS(=O)(=O)c3ccccc3[N+](=O)[O-])CC[C@H](OC)[C@]34C1[C@H](C[C@H]23)[C@@]1(O)C[C@H](OC)[C@H]2C[C@@H]4[C@]1(O)[C@H]2OC`, inhibition in vivo at 10 mg/kg 58.5%. Against it:
- CCN1C[C@]2(OC(=O)c3ccccc3NS(=O)(=O)c3ccc4ccccc4c3)CC[C@H](OC)[C@]34C1[C@H](C[C@H]23)[C@@]1(O)C[C@H](OC)[C@H]2C[C@@H]4[C@]1(O)[C@H]2OC — lower, 28.4%
- CCN1C[C@]2(OC(=O)c3ccccc3NC(=O)C3CCCO3)CC[C@H](OC)[C@]34C1[C@H](C[C@H]23)[C@@]1(O)C[C@H](OC)[C@H]2C[C@@H]4[C@]1(O)[C@H]2OC (some centres undefined) — lower, 21.8%
- CCN1C[C@]2(OC(=O)c3ccccc3NS(=O)(=O)c3c(C)cc(C)cc3C)CC[C@H](OC)[C@]34C1[C@H](C[C@H]23)[C@@]1(O)C[C@H](OC)[C@H]2C[C@@H]4[C@]1(O)[C@H]2OC — lower, 52.1%
- CCN1C[C@]2(OC(=O)c3ccccc3NC(=O)c3ccccc3)CC[C@H](OC)[C@]34C1[C@H](C[C@H]23)[C@@]1(O)C[C@H](OC)[C@H]2C[C@@H]4[C@]1(O)[C@H]2OC — lower, 0%
- CCN1C[C@]2(OC(=O)c3ccccc3NS(=O)(=O)c3ccccc3C(F)(F)F)CC[C@H](OC)[C@]34C1[C@H](C[C@H]23)[C@@]1(O)C[C@H](OC)[C@H]2C[C@@H]4[C@]1(O)[C@H]2OC — lower, 55.2%
- CCN1C[C@]2(OC(=O)c3ccccc3NC(=O)c3ccc(Cl)cc3Cl)CC[C@H](OC)[C@]34C1[C@H](C[C@H]23)[C@@]1(O)C[C@H](OC)[C@H]2C[C@@H]4[C@]1(O)[C@H]2OC — lower, 31.2%
- CCN1C[C@]2(OC(=O)c3ccccc3NC(=O)c3ccc([N+](=O)[O-])cc3)CC[C@H](OC)[C@]34C1[C@H](C[C@H]23)[C@@]1(O)C[C@H](OC)[C@H]2C[C@@H]4[C@]1(O)[C@H]2OC — lower, 27.2%
- CCN1C[C@]2(OC(=O)c3ccccc3NC(=O)c3ccc(Cl)s3)CC[C@H](OC)[C@]34C1[C@H](C[C@H]23)[C@@]1(O)C[C@H](OC)[C@H]2C[C@@H]4[C@]1(O)[C@H]2OC — lower, 27.8%
- CCN1C[C@]2(OC(=O)c3ccccc3NC(=O)c3ccc(C(=O)OC)cc3)CC[C@H](OC)[C@]34C1[C@H](C[C@H]23)[C@@]1(O)C[C@H](OC)[C@H]2C[C@@H]4[C@]1(O)[C@H]2OC — lower, 36.4%
- CCN1C[C@]2(OC(=O)c3ccccc3NS(=O)(=O)c3ccc(Cl)s3)CC[C@H](OC)[C@]34C1[C@H](C[C@H]23)[C@@]1(O)C[C@H](OC)[C@H]2C[C@@H]4[C@]1(O)[C@H]2OC — lower, 31.3%
- CCN1C[C@]2(OC(=O)c3ccccc3NS(=O)(=O)c3ccc(C#N)cc3)CC[C@H](OC)[C@]34C1[C@H](C[C@H]23)[C@@]1(O)C[C@H](OC)[C@H]2C[C@@H]4[C@]1(O)[C@H]2OC — lower, 21.4%
- CCN1C[C@]2(OC(=O)c3ccccc3NS(=O)(=O)Cc3ccc([N+](=O)[O-])cc3)CC[C@H](OC)[C@]34C1[C@H](C[C@H]23)[C@@]1(O)C[C@H](OC)[C@H]2C[C@@H]4[C@]1(O)[C@H]2OC — lower, 42.4%
- CCN1C[C@]2(OC(=O)c3ccccc3NS(=O)(=O)c3cccc(C#N)c3)CC[C@H](OC)[C@]34C1[C@H](C[C@H]23)[C@@]1(O)C[C@H](OC)[C@H]2C[C@@H]4[C@]1(O)[C@H]2OC — lower, 47.4%
- CCN1C[C@]2(OC(=O)c3ccccc3NS(=O)(=O)c3ccc(F)c(F)c3)CC[C@H](OC)[C@]34C1[C@H](C[C@H]23)[C@@]1(O)C[C@H](OC)[C@H]2C[C@@H]4[C@]1(O)[C@H]2OC — lower, 28.3%
- CCN1C[C@]2(OC(=O)c3ccccc3NC(=O)c3ccc(C(C)C)cc3)CC[C@H](OC)[C@]34C1[C@H](C[C@H]23)[C@@]1(O)C[C@H](OC)[C@H]2C[C@@H]4[C@]1(O)[C@H]2OC — lower, 21%
- CCN1C[C@]2(OC(=O)c3ccccc3NS(=O)(=O)c3ccc(OC)cc3)CC[C@H](OC)[C@]34C1[C@H](C[C@H]23)[C@@]1(O)C[C@H](OC)[C@H]2C[C@@H]4[C@]1(O)[C@H]2OC — lower, 16.8%
- CCN1C[C@]2(OC(=O)c3ccccc3NS(=O)(=O)c3cc(F)cc(F)c3)CC[C@H](OC)[C@]34C1[C@H](C[C@H]23)[C@@]1(O)C[C@H](OC)[C@H]2C[C@@H]4[C@]1(O)[C@H]2OC — lower, 37.5%
- CCN1C[C@]2(OC(=O)c3ccccc3NC(=O)c3cnc(Cl)cn3)CC[C@H](OC)[C@]34C1[C@H](C[C@H]23)[C@@]1(O)C[C@H](OC)[C@H]2C[C@@H]4[C@]1(O)[C@H]2OC — lower, 31.5%
- CCN1C[C@]2(OC(=O)c3ccccc3NS(=O)(=O)c3cccc([N+](=O)[O-])c3)CC[C@H](OC)[C@]34C1[C@H](C[C@H]23)[C@@]1(O)C[C@H](OC)[C@H]2C[C@@H]4[C@]1(O)[C@H]2OC — lower, 6.7%
- CCN1C[C@]2(OC(=O)c3ccccc3NS(=O)(=O)c3cccc(C)c3)CC[C@H](OC)[C@]34C1[C@H](C[C@H]23)[C@@]1(O)C[C@H](OC)[C@H]2C[C@@H]4[C@]1(O)[C@H]2OC — lower, 52.1%
- CCN1C[C@]2(OC(=O)c3ccccc3NS(=O)(=O)c3cccnc3)CC[C@H](OC)[C@]34C1[C@H](C[C@H]23)[C@@]1(O)C[C@H](OC)[C@H]2C[C@@H]4[C@]1(O)[C@H]2OC — lower, 32.3%
- CCN1C[C@]2(OC(=O)c3ccccc3NS(=O)(=O)c3ccc(Br)cc3)CC[C@H](OC)[C@]34C1[C@H](C[C@H]23)[C@@]1(O)C[C@H](OC)[C@H]2C[C@@H]4[C@]1(O)[C@H]2OC — lower, 11.4%
- CCN1C[C@]2(OC(=O)c3ccccc3NC(=O)c3ccccc3N(C)C)CC[C@H](OC)[C@]34C1[C@H](C[C@H]23)[C@@]1(O)C[C@H](OC)[C@H]2C[C@@H]4[C@]1(O)[C@H]2OC — lower, 34.2%
- CCN1C[C@]2(OC(=O)c3ccccc3NC(=O)C3CCCC3)CC[C@H](OC)[C@]34C1[C@H](C[C@H]23)[C@@]1(O)C[C@H](OC)[C@H]2C[C@@H]4[C@]1(O)[C@H]2OC — lower, 56.9%
- CCN1C[C@]2(OC(=O)c3ccccc3NS(=O)(=O)c3ccccc3Br)CC[C@H](OC)[C@]34C1[C@H](C[C@H]23)[C@@]1(O)C[C@H](OC)[C@H]2C[C@@H]4[C@]1(O)[C@H]2OC — lower, 24.7%
- CCN1C[C@]2(OC(=O)c3ccccc3NS(=O)(=O)c3ccc(Cl)cc3)CC[C@H](OC)[C@]34C1[C@H](C[C@H]23)[C@@]1(O)C[C@H](OC)[C@H]2C[C@@H]4[C@]1(O)[C@H]2OC — lower, 11.7%
- CCN1C[C@]2(OC(=O)c3ccccc3NS(=O)(=O)c3cc(OC)ccc3OC)CC[C@H](OC)[C@]34C1[C@H](C[C@H]23)[C@@]1(O)C[C@H](OC)[C@H]2C[C@@H]4[C@]1(O)[C@H]2OC — higher, 65.8%
- CCN1C[C@]2(OC(=O)c3ccccc3NC(=O)c3ccc(I)cc3)CC[C@H](OC)[C@]34C1[C@H](C[C@H]23)[C@@]1(O)C[C@H](OC)[C@H]2C[C@@H]4[C@]1(O)[C@H]2OC — lower, 31.1%
- CCN1C[C@]2(OC(=O)c3ccccc3NC(=O)c3ccccc3Cl)CC[C@H](OC)[C@]34C1[C@H](C[C@H]23)[C@@]1(O)C[C@H](OC)[C@H]2C[C@@H]4[C@]1(O)[C@H]2OC — lower, 4.4%
- CCN1C[C@]2(OC(=O)c3ccccc3NS(=O)(=O)c3cccc(Br)c3)CC[C@H](OC)[C@]34C1[C@H](C[C@H]23)[C@@]1(O)C[C@H](OC)[C@H]2C[C@@H]4[C@]1(O)[C@H]2OC — lower, 13%
- CCN1C[C@]2(OC(=O)c3ccccc3NS(=O)(=O)Cc3ccccc3)CC[C@H](OC)[C@]34C1[C@H](C[C@H]23)[C@@]1(O)C[C@H](OC)[C@H]2C[C@@H]4[C@]1(O)[C@H]2OC — lower, 43.8%
- CCN1C[C@]2(OC(=O)c3ccccc3NC(=O)c3ccc(Cl)c(Cl)c3)CC[C@H](OC)[C@]34C1[C@H](C[C@H]23)[C@@]1(O)C[C@H](OC)[C@H]2C[C@@H]4[C@]1(O)[C@H]2OC — lower, 10.4%
- CCN1C[C@]2(OC(=O)c3ccccc3NS(=O)(=O)c3cccc(C(F)(F)F)c3)CC[C@H](OC)[C@]34C1[C@H](C[C@H]23)[C@@]1(O)C[C@H](OC)[C@H]2C[C@@H]4[C@]1(O)[C@H]2OC — lower, 12.8%
- CCN1C[C@]2(OC(=O)c3ccccc3NS(=O)(=O)c3ccc(F)cc3)CC[C@H](OC)[C@]34C1[C@H](C[C@H]23)[C@@]1(O)C[C@H](OC)[C@H]2C[C@@H]4[C@]1(O)[C@H]2OC — lower, 14.7%
- CCN1C[C@]2(OC(=O)c3ccccc3NC(=O)c3ccc(C)cc3C)CC[C@H](OC)[C@]34C1[C@H](C[C@H]23)[C@@]1(O)C[C@H](OC)[C@H]2C[C@@H]4[C@]1(O)[C@H]2OC — lower, 0%
- CCN1C[C@]2(OC(=O)c3ccccc3NS(=O)(=O)c3cccc(Cl)c3)CC[C@H](OC)[C@]34C1[C@H](C[C@H]23)[C@@]1(O)C[C@H](OC)[C@H]2C[C@@H]4[C@]1(O)[C@H]2OC — lower, 33.1%
- CCCOc1ccccc1C(=O)Nc1ccccc1C(=O)O[C@@]12CC[C@H](OC)[C@]34C([C@H](C[C@H]13)[C@@]1(O)C[C@H](OC)[C@H]3C[C@@H]4[C@]1(O)[C@H]3OC)N(CC)C2 — lower, 19.2%
- CCN1C[C@]2(OC(=O)c3ccccc3NS(=O)(=O)c3ccccc3F)CC[C@H](OC)[C@]34C1[C@H](C[C@H]23)[C@@]1(O)C[C@H](OC)[C@H]2C[C@@H]4[C@]1(O)[C@H]2OC — higher, 60.3%
